According to ChEMBL document CHEMBL1201862, “PubChem BioAssay data set” (2004):
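These data come from cells grown in 96-well plates and exposed to compound for 48 hours at five concentrations. The concentration for 50% growth inhibition is given as GI50.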 Active and inactive are the calls of the source. Rule as the data show it: active = GI50 up to about 1.1 µM and inactive = higher.

Key:
Assay in all cases: DTP human tumour cell line panel, 48 h
MDA-MB-435 = tested on: MDA-MB-435
HOP-92 = tested on: HOP-92
SK-OV-3 = tested on: SK-OV-3
HL-60 = tested on: HL-60
UACC-257 = tested on: UACC-257
T47D = tested on: T47D
ACHN = tested on: ACHN
Malme-3M = tested on: Malme-3M
SK-MEL-2 = tested on: SK-MEL-2
OVCAR-4 = tested on: OVCAR-4
OVCAR-5 = tested on: OVCAR-5
CCRF-CEM = tested on: CCRF-CEM
IGROV-1 = tested on: IGROV-1
SK-MEL-28 = tested on: SK-MEL-28
MCF7 = tested on: MCF7
MOLT-4 = tested on: MOLT-4
HCC 2998 = tested on: HCC 2998
U-251 = tested on: U-251
NCI-H226 = tested on: NCI-H226
MDA-MB-231 = tested on: MDA-MB-231

Measured: GI50

CCCSc1ccc2[nH]c(/N=C/c3ccco3)cc2c1
inactive: MDA-MB-435 17.8 µM | HOP-92 81.8 µM | SK-OV-3 30.5 µM | HL-60 29.8 µM | UACC-257 33.6 µM | T47D 38.1 µM | ACHN 49.5 µM | Malme-3M 67.9 µM | SK-MEL-2 23.7 µM | OVCAR-4 39.4 µM | OVCAR-5 6.08 µM | CCRF-CEM 27.6 µM | IGROV-1 36.5 µM | SK-MEL-28 41.8 µM | MCF7 6.34 µM

COc1cc2c(OC)cc1CSCc1sc(C)c(c1Br)CSC2
inactive: MOLT-4 > 100 µM | HOP-92 > 100 µM | SK-OV-3 > 100 µM | HL-60 69.3 µM | UACC-257 > 100 µM | ACHN > 100 µM | Malme-3M > 100 µM | SK-MEL-2 > 100 µM | OVCAR-4 > 100 µM | HCC 2998 > 100 µM | OVCAR-5 > 100 µM | U-251 > 100 µM | CCRF-CEM > 100 µM | NCI-H226 > 100 µM | IGROV-1 > 100 µM | SK-MEL-28 > 100 µM

COc1cc(C2SCC(=O)N2c2ccccn2)cc(OC)c1OC (stereo unspecified)
inactive: MDA-MB-435 27 µM | MOLT-4 > 100 µM | HOP-92 14.2 µM | SK-OV-3 > 100 µM | HL-60 58.7 µM | UACC-257 49.8 µM | ACHN > 100 µM | SK-MEL-2 > 100 µM | OVCAR-4 > 100 µM | HCC 2998 > 100 µM | OVCAR-5 > 100 µM | U-251 > 100 µM | CCRF-CEM > 100 µM | NCI-H226 > 100 µM | MDA-MB-231 > 100 µM | IGROV-1 81.1 µM | SK-MEL-28 > 100 µM | MCF7 49.2 µM

COc1ccc(NC(=S)N/N=C/c2c(C)n(C)n(-c3ccccc3)c2=O)cc1
inactive: MDA-MB-435 51.4 µM | MOLT-4 > 100 µM | HOP-92 22.2 µM | SK-OV-3 28.6 µM | HL-60 > 100 µM | UACC-257 > 100 µM | ACHN 34.7 µM | SK-MEL-2 32.1 µM | OVCAR-4 19.1 µM | HCC 2998 > 100 µM | U-251 20.4 µM | CCRF-CEM > 100 µM | NCI-H226 35.6 µM | MDA-MB-231 17.5 µM | IGROV-1 47.5 µM | SK-MEL-28 64.1 µM | MCF7 42.7 µM

Cn1cc(C(=O)NCCC(=N)N)cc1NC(=O)C1=[N+](C)C=C(NC(=O)c2cccc(C(=O)NC3=CC(C(=O)Nc4cc(C(=O)NCCC(=N)N)cn4C)=[N+](C)C3)c2)C1
inactive: MOLT-4 > 100 µM | HOP-92 > 100 µM | SK-OV-3 > 100 µM | HL-60 > 100 µM | UACC-257 93.1 µM | ACHN > 100 µM | Malme-3M 24.8 µM | SK-MEL-2 > 100 µM | OVCAR-4 > 100 µM | HCC 2998 99.8 µM | U-251 > 100 µM | CCRF-CEM > 100 µM | NCI-H226 > 100 µM | IGROV-1 > 100 µM | SK-MEL-28 > 100 µM

CCCOC(=O)C1C(c2ccc(OC)cc2)NC(c2ccc(OC)cc2)C(C(=O)OCCC)S1(=O)=O (stereo unspecified)
inactive: MOLT-4 > 10 µM | HOP-92 > 10 µM | SK-OV-3 > 100 µM | HL-60 > 100 µM | UACC-257 > 10 µM | ACHN > 10 µM | Malme-3M > 10 µM | SK-MEL-2 > 10 µM | OVCAR-4 > 10 µM | HCC 2998 > 10 µM | OVCAR-5 > 10 µM | U-251 > 10 µM | CCRF-CEM > 10 µM | NCI-H226 > 10 µM | IGROV-1 > 10 µM | SK-MEL-28 > 10 µM

COC(=O)CCC(NC(=S)N/N=C(\C)c1ccc[nH]1)C(=O)OC (stereo unspecified)
inactive: MOLT-4 > 100 µM | HOP-92 > 100 µM | SK-OV-3 > 100 µM | HL-60 > 100 µM | UACC-257 > 100 µM | ACHN > 100 µM | Malme-3M > 100 µM | SK-MEL-2 > 100 µM | OVCAR-4 > 100 µM | HCC 2998 > 100 µM | OVCAR-5 > 100 µM | U-251 > 100 µM | CCRF-CEM > 100 µM | NCI-H226 > 100 µM | IGROV-1 > 100 µM | SK-MEL-28 > 100 µM

Cc1cccc(Nc2cn(CCOc3ccccc3)c(=O)[nH]c2=O)c1
inactive: MDA-MB-435 29.5 µM | MOLT-4 36.9 µM | HOP-92 35.6 µM | UACC-257 43.7 µM | ACHN 33.2 µM | OVCAR-4 69.5 µM | HCC 2998 24.8 µM | OVCAR-5 19.4 µM | U-251 33.7 µM | CCRF-CEM 52.6 µM | IGROV-1 16.7 µM | SK-MEL-28 29.5 µM | MCF7 35.9 µM
